Measurements from the supplement of paper PMC11424490.

Tests used:
[1] = test system: NCI-H358; experiment: fitted bottom plateau of viability curve, % of DMSO control; higher = less maximal inhibition; extreme values may be limits of the assay
How it was run: (§1)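 Relative IC50 values, averaged over replicates, and lower plateaus were obtained by four-parameter nonlinear fitting of percent-of-control viability data, normalised to DMSO controls. Viability was read as CellTiter-Glo luminescence after single-compound dose series had been incubated for 72 h (NCI-H2122, NCI-H358) or 144 h (SW837).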

[2] = test system: SW837; experiment: as above
How it was run: as §1

[3] = test system: NCI-H2122; experiment: as above
How it was run: as §1

[4] = test system: NCI-H358; experiment: relative IC50 of cell viability (CellTiter-Glo); higher = less potent
Protocol: (§2)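 CellTiter-Glo proliferation assay in KRAS G12C mutant NCI-H2122 (72 h), SW837 (144 h) and NCI-H358 cells in 384-well plates. Monotherapy dose response was fitted with a four-parameter curve after normalisation to DMSO controls (% of control, PoC). IC50 is the relative IC50, averaged over replicates. Bottom is the fitted lower plateau in %PoC; Max.Conc. is the top dose tested.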

[5] = test system: NCI-H2122; experiment: as above
Protocol: as §2

[6] = test system: NCI-H358; experiment: combination cScore with adagrasib (Bliss gap around IC50) (%PoC); higher = stronger additive effect
How it was run: (§3)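 NCI-H2122, NCI-H358 and SW837 cells (500 or 800 per well, 384-well plates) were dosed in concentration matrices after 24 h and grown 72 h, or 144 h for SW837. CellTiter-Glo luminescence was normalised to vehicle wells as percent of control and fitted with four-parameter curves. The score averages the Bliss-independence gap (expected minus measured viability) over a field around both monotherapy IC50s, or at the top concentrations when no IC50 was reached.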

[7] = test system: SW837; experiment: as above
How it was run: as §3

[8] = test system: NCI-H2122; experiment: as above
How it was run: as §3

Cc1c(-c2c(-c3ccc(F)o3)sc3ncnc(O[C@H](Cc4ccccc4OCc4ccnn4CC(F)(F)F)C(=O)O)c23)ccc(OCCN2CCN(C)CC2)c1Cl (top concentration tested 10000 nM)
fitted bottom plateau of viability curve [1]: 0% | fitted bottom plateau of viability curve [2]: 101% | fitted bottom plateau of viability curve [3]: 34.5% | relative IC50 of cell viability [4]: 3590 nM | relative IC50 of cell viability [5]: 3.79 µM

CC1(C)CCC(c2ccc(Cl)cc2)=C(CN2CCN(c3ccc(C(=O)NS(=O)(=O)c4ccc(N[C@H](CCN5CCOCC5)CSc5ccccc5)c(S(=O)(=O)C(F)(F)F)c4)cc3)CC2)C1 [ABT-263] (top concentration tested 10000 nM)
fitted bottom plateau of viability curve [1]: 0% | fitted bottom plateau of viability curve [2]: 46% | fitted bottom plateau of viability curve [3]: 50% | relative IC50 of cell viability [4]: 6290 nM | relative IC50 of cell viability [5]: 6.24 µM

COc1cc(CCc2cc(NC(=O)c3ccc(N4CC(C)NC(C)C4)cc3)n[nH]2)cc(OC)c1 (stereo not drawn) [AZD4547] (top concentration tested 10000 nM)
fitted bottom plateau of viability curve [1]: 0% | fitted bottom plateau of viability curve [2]: 86.8% | fitted bottom plateau of viability curve [3]: 68% | relative IC50 of cell viability [4]: 5730 nM | relative IC50 of cell viability [5]: 4.1 µM

CCN(CCCOc1ccc2c(Nc3cc(CC(=O)Nc4cccc(F)c4)[nH]n3)ncnc2c1)CCOP(=O)(O)O [AZD-1152] (top concentration tested 1000.1 nM)
fitted bottom plateau of viability curve [1]: 60.1% | fitted bottom plateau of viability curve [2]: 62% | fitted bottom plateau of viability curve [3]: 57.4% | relative IC50 of cell viability [4]: 28 nM

Cc1nc(NC(=O)N2CCC[C@H]2C(N)=O)sc1-c1ccnc(C(C)(C)C(F)(F)F)c1 [BYL-719] (top concentration tested 10000 nM)
fitted bottom plateau of viability curve [1]: 10.9% | fitted bottom plateau of viability curve [2]: 77.5% | fitted bottom plateau of viability curve [3]: 17.8% | relative IC50 of cell viability [4]: 2610 nM | relative IC50 of cell viability [5]: 2.53 µM

C#Cc1cccc(Nc2ncnc3cc(OCCOC)c(OCCOC)cc23)c1 [Erlotinib] (top concentration tested 10000 nM)
fitted bottom plateau of viability curve [1]: 12.3% | fitted bottom plateau of viability curve [2]: 82.2% | fitted bottom plateau of viability curve [3]: 29.5% | relative IC50 of cell viability [4]: 1300 nM | relative IC50 of cell viability [5]: 4.26 µM

C[C@H](Nc1ccc2c(c1)OCCn1cc(N3C(=O)OC[C@H]3C(F)F)nc1-2)C(N)=O [GDC-0077] (top concentration tested 10000 nM)
fitted bottom plateau of viability curve [1]: 23.1% | fitted bottom plateau of viability curve [2]: 68.7% | fitted bottom plateau of viability curve [3]: 48.4% | relative IC50 of cell viability [4]: 712 nM | relative IC50 of cell viability [5]: 0.867 µM

COc1cc2ncnc(Nc3ccc(F)c(Cl)c3)c2cc1OCCCN1CCOCC1 [Gefitinib] (top concentration tested 9999.9 nM)
fitted bottom plateau of viability curve [1]: 19.7% | fitted bottom plateau of viability curve [2]: 77.7% | fitted bottom plateau of viability curve [3]: 37.8% | relative IC50 of cell viability [4]: 883 nM | relative IC50 of cell viability [5]: 3.1 µM

C=CC(=O)N1CCC[C@@H](n2nc(-c3ccc(Oc4ccccc4)cc3)c3c(N)ncnc32)C1 [Ibrutinib] (top concentration tested 10000 nM)
fitted bottom plateau of viability curve [1]: 12.4% | fitted bottom plateau of viability curve [2]: 76.6% | fitted bottom plateau of viability curve [3]: 76.7% | relative IC50 of cell viability [4]: 262 nM

Cc1c(CN2CCC(Nc3ncnc4sc(CC(F)(F)F)cc34)CC2)ccc2[nH]c(C#N)cc12 [MI-463] (top concentration tested 5000 nM)
fitted bottom plateau of viability curve [1]: 0% | fitted bottom plateau of viability curve [2]: 86.6% | fitted bottom plateau of viability curve [3]: 79.5% | relative IC50 of cell viability [4]: 3910 nM

COc1cc(N2CCC(N3CCN(C)CC3)CC2)ccc1Nc1ncc(Cl)c(Nc2ccccc2S(=O)(=O)C(C)C)n1 [NVP-TAE684] + C=C(F)C(=O)N1CCN(c2nc(OC[C@@H]3CCCN3C)nc3c2CCN(c2cccc4cccc(Cl)c24)C3)C[C@@H]1CC#N [adagrasib]
combination cScore with adagrasib [6]: 3.66 | combination cScore with adagrasib [7]: 23.6 | combination cScore with adagrasib [8]: 12.8

O=C(c1cc(Cc2n[nH]c(=O)c3ccccc23)ccc1F)N1CCN(C(=O)C2CC2)CC1 [Olaparib] + C=C(F)C(=O)N1CCN(c2nc(OC[C@@H]3CCCN3C)nc3c2CCN(c2cccc4cccc(Cl)c24)C3)C[C@@H]1CC#N [adagrasib]
combination cScore with adagrasib [6]: 1.38 | combination cScore with adagrasib [7]: 2.95 | combination cScore with adagrasib [8]: 5.71

C=CC(=O)Nc1cc(Nc2nccc(-c3cn(C)c4ccccc34)n2)c(OC)cc1N(C)CCN(C)C [Osimertinib] + C=C(F)C(=O)N1CCN(c2nc(OC[C@@H]3CCCN3C)nc3c2CCN(c2cccc4cccc(Cl)c24)C3)C[C@@H]1CC#N [adagrasib]
combination cScore with adagrasib [6]: 8.16 | combination cScore with adagrasib [7]: 26.1 | combination cScore with adagrasib [8]: 10

O=C(/C=C/N1C[C@H]2C[C@@H]1CN2c1ccccn1)c1ccccc1O [PFI-3] + C=C(F)C(=O)N1CCN(c2nc(OC[C@@H]3CCCN3C)nc3c2CCN(c2cccc4cccc(Cl)c24)C3)C[C@@H]1CC#N [adagrasib]
combination cScore with adagrasib [6]: -3.19 | combination cScore with adagrasib [7]: -2.21 | combination cScore with adagrasib [8]: 15.8

O=C(c1c(F)ccc(NS(=O)(=O)N2CC[C@@H](F)C2)c1F)c1c[nH]c2ncc(-c3cnc(C4CC4)nc3)cc12 [PLX8394] + C=C(F)C(=O)N1CCN(c2nc(OC[C@@H]3CCCN3C)nc3c2CCN(c2cccc4cccc(Cl)c24)C3)C[C@@H]1CC#N [adagrasib]
combination cScore with adagrasib [6]: 0.57 | combination cScore with adagrasib [7]: -2.23 | combination cScore with adagrasib [8]: 17.5

CC(=O)c1c(C)c2cnc(Nc3ccc(N4CCNCC4)cn3)nc2n(C2CCCC2)c1=O [Palbociclib] (top concentration tested 5000 nM)
fitted bottom plateau of viability curve [1]: 34.2% | fitted bottom plateau of viability curve [2]: 93.5% | fitted bottom plateau of viability curve [3]: 59.8% | relative IC50 of cell viability [4]: 859 nM

CC(=O)c1c(C)c2cnc(Nc3ccc(N4CCNCC4)cn3)nc2n(C2CCCC2)c1=O [Palbociclib] + C=C(F)C(=O)N1CCN(c2nc(OC[C@@H]3CCCN3C)nc3c2CCN(c2cccc4cccc(Cl)c24)C3)C[C@@H]1CC#N [adagrasib]
combination cScore with adagrasib [6]: 2.62 | combination cScore with adagrasib [7]: 19.2 | combination cScore with adagrasib [8]: 8.54

Cc1ccc(C(=O)Nc2ccc(CN3CCN(C)CC3)c(C(F)(F)F)c2)cc1C#Cc1cnc2cccnn12 [Ponatinib] + C=C(F)C(=O)N1CCN(c2nc(OC[C@@H]3CCCN3C)nc3c2CCN(c2cccc4cccc(Cl)c24)C3)C[C@@H]1CC#N [adagrasib]
combination cScore with adagrasib [6]: 3.62 | combination cScore with adagrasib [7]: -0.53 | combination cScore with adagrasib [8]: 14.4

CCc1nc(N)nc(N)c1-c1ccc(Cl)cc1 [Pyrimethamine] + C=C(F)C(=O)N1CCN(c2nc(OC[C@@H]3CCCN3C)nc3c2CCN(c2cccc4cccc(Cl)c24)C3)C[C@@H]1CC#N [adagrasib]
combination cScore with adagrasib [6]: -2.05 | combination cScore with adagrasib [7]: -3.37 | combination cScore with adagrasib [8]: 15.2

CC1(N)CCN(c2cnc(-c3cccc(Cl)c3Cl)c(N)n2)CC1 [SHP099] + C=C(F)C(=O)N1CCN(c2nc(OC[C@@H]3CCCN3C)nc3c2CCN(c2cccc4cccc(Cl)c24)C3)C[C@@H]1CC#N [adagrasib]
combination cScore with adagrasib [6]: 1.39 | combination cScore with adagrasib [7]: 14.3 | combination cScore with adagrasib [8]: 19.4

CCc1c2c(nc3ccc(O)cc13)-c1cc3c(c(=O)n1C2)COC(=O)[C@]3(O)CC [SN-38] + C=C(F)C(=O)N1CCN(c2nc(OC[C@@H]3CCCN3C)nc3c2CCN(c2cccc4cccc(Cl)c24)C3)C[C@@H]1CC#N [adagrasib]
combination cScore with adagrasib [6]: -1.51 | combination cScore with adagrasib [7]: -1.14 | combination cScore with adagrasib [8]: 6.93

C[C@@H]1OCC2(CCN(c3cnc(Sc4ccnc(N)c4Cl)c(N)n3)CC2)[C@@H]1N [TNO155] (top concentration tested 10000 nM)
fitted bottom plateau of viability curve [1]: 29.4% | fitted bottom plateau of viability curve [2]: 94.5% | fitted bottom plateau of viability curve [3]: 69.5% | relative IC50 of cell viability [4]: 499 nM

C[C@@H]1OCC2(CCN(c3cnc(Sc4ccnc(N)c4Cl)c(N)n3)CC2)[C@@H]1N [TNO155] + C=C(F)C(=O)N1CCN(c2nc(OC[C@@H]3CCCN3C)nc3c2CCN(c2cccc4cccc(Cl)c24)C3)C[C@@H]1CC#N [adagrasib]
combination cScore with adagrasib [6]: 9.32 | combination cScore with adagrasib [7]: 31 | combination cScore with adagrasib [8]: 49

CC/C(=C(\c1ccccc1)c1ccc(OCCN(C)C)cc1)c1ccccc1 [Tamoxifen] + C=C(F)C(=O)N1CCN(c2nc(OC[C@@H]3CCCN3C)nc3c2CCN(c2cccc4cccc(Cl)c24)C3)C[C@@H]1CC#N [adagrasib]
combination cScore with adagrasib [6]: 6.27 | combination cScore with adagrasib [7]: 5.45 | combination cScore with adagrasib [8]: 10.3

Cc1nc(-c2cn3c(n2)-c2ccc(-c4cnn(C(C)(C)C(N)=O)c4)cc2OCC3)n(C(C)C)n1 [Taselisib] + C=C(F)C(=O)N1CCN(c2nc(OC[C@@H]3CCCN3C)nc3c2CCN(c2cccc4cccc(Cl)c24)C3)C[C@@H]1CC#N [adagrasib]
combination cScore with adagrasib [6]: 7.08 | combination cScore with adagrasib [7]: 26.6 | combination cScore with adagrasib [8]: 18.1

COc1cc2/c(=N/c3ccc(Br)cc3F)nc[nH]c2cc1OCC1CCN(C)CC1 [Vandetanib] + C=C(F)C(=O)N1CCN(c2nc(OC[C@@H]3CCCN3C)nc3c2CCN(c2cccc4cccc(Cl)c24)C3)C[C@@H]1CC#N [adagrasib]
combination cScore with adagrasib [6]: 7.95 | combination cScore with adagrasib [7]: 27.6 | combination cScore with adagrasib [8]: 21.3

Oc1nc(-c2ccc(C(F)(F)F)cc2)nc2c1CSCC2 [XAV939] + C=C(F)C(=O)N1CCN(c2nc(OC[C@@H]3CCCN3C)nc3c2CCN(c2cccc4cccc(Cl)c24)C3)C[C@@H]1CC#N [adagrasib]
combination cScore with adagrasib [6]: 4.11 | combination cScore with adagrasib [7]: 5.74 | combination cScore with adagrasib [8]: 23.8

CCNC(=O)C[C@@H]1N=C(c2ccc(Cl)cc2)c2cc(OC)ccc2-n2c(C)nnc21 [iBET-762] + C=C(F)C(=O)N1CCN(c2nc(OC[C@@H]3CCCN3C)nc3c2CCN(c2cccc4cccc(Cl)c24)C3)C[C@@H]1CC#N [adagrasib]
combination cScore with adagrasib [6]: 5.14 | combination cScore with adagrasib [7]: 0.28 | combination cScore with adagrasib [8]: 22.7
